Experiments:
Type in all cases: in vivo
[1] = test system: Monocotyledonous and dicotyledonous test plants; experiment: Example B2 herbicidal action, application pre-emergence, 96-cell seed trays (Table B2b); settings: 1000 g/ha
Description: Monocotyledonous and dicotyledonous test plants were sown in sterilised standard soil in seed trays each having 96 cells. After one day (pre-emergence) or after 8 to 9 days cultivation (post-emergence) under controlled conditions in a climatic chamber (cultivation at 17/23° C.; 13 hours light; 50-60% humidity; after application at 19/24° C.), the plants were treated with an aqueous spray solution of 1000 mg/l of the active ingredient used (rate of application: […]; incl. 10% DMSO as solvent). The plants were grown on in the climatic chamber until the test was evaluated (10 total damage to plant, 0=no damage to plant) after 9 or 13 days.

[2] = test system: Monocotyledonous and dicotyledonous test plants; experiment: Example B1 herbicidal action, application pre-emergence (Table B1b); settings: 250 g/ha, evaluated after 4 weeks
How it was run: (§1)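 Compounds sprayed as aqueous solution from acetone/Emulsogen EL/NMP/dipropylene glycol monomethyl ether/X-77 formulation onto soil right after sowing (pre-emergence) or onto 8–9-day plants (post-emergence); greenhouse-grown. Damage scored 0 (none) to 10 (total) after 4 weeks pre- or 3 weeks post-emergence.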

[3] = test system: Monocotyledonous and dicotyledonous test plants; experiment: Example B1 herbicidal action, application post-emergence (Table B1a); settings: 250 g/ha, evaluated after 3 weeks, scale 0-10
How it was run: as §1

SMILES	herbicidal action (damage rating 0-10), Agrostis [1]	herbicidal action (damage rating 0-10), Digitaria [1]	herbicidal action (damage rating 0-10), Poa [1]	herbicidal action (damage rating 0-10), Setaria [1]	herbicidal action (damage rating 0-10), Amaranthus [2]	herbicidal action (damage rating 0-10), Digitaria [2]	herbicidal action (damage rating 0-10), Panicum [2]	herbicidal action (damage rating 0-10), Setaria [2]	herbicidal action (damage rating 0-10), Sida [2]	herbicidal damage rating, Abutilon [3]	herbicidal damage rating, Amaranthus [3]	herbicidal damage rating, Digitaria [3]	herbicidal damage rating, Panicum [3]	herbicidal damage rating, Setaria [3]	herbicidal damage rating, Sida [3]
CC1(C)CC(S(=O)(=O)C2(c3c(F)cccc3F)CC2[N+](=O)[O-])=NO1 (stereo not drawn) [1.48]	10	9	10	8	–	–	–	–	–	–	–	–	–	–	–
COCC(=O)OC(COC)=C(c1c(F)cccc1F)S(=O)(=O)C1=NOC(C)(C)C1 [1.100]	5	7	9	3	–	–	–	–	–	–	–	–	–	–	–
CC1(C)CC(S(=O)(=O)C2(c3c(F)cccc3F)CC2(Cl)Cl)=NO1 (stereo not drawn) [Compound No. 1.45, 3-[2,2-dichloro-1-(2,6-difluoro-phenyl)-cyclopropanesulfonyl]-5,5-dimethyl-4,5-dihydroisoxazole]	7	8	10	6	–	–	–	–	–	–	–	–	–	–	–
CC1(C)CC(S(=O)(=O)C(F)(Cl)c2ccccc2C(F)(F)F)=NO1 (racemic) [1.95]	–	–	–	–	7	10	10	10	7	0	0	8	7	3	2
COc1ccccc1C(F)(F)S(=O)(=O)C1=NOC(C)(C)C1 [1.107]	–	–	–	–	9	7	9	10	0	4	0	8	7	5	5
CC1(C)CC(S(=O)(=O)C(F)(Cl)c2cccc(F)c2F)=NO1 (stereo not drawn) [1.148]	–	–	–	–	10	10	10	10	6	0	7	8	8	8	2
CC1(C)CC(S(=O)(=O)C(F)(F)c2ccccc2-c2ccccc2)=NO1 [1.117]	–	–	–	–	9	10	10	8	4	4	7	7	5	6	6
CC1(C)CC(S(=O)(=O)C(F)(F)c2cc(F)ccc2F)=NO1 [1.114]	–	–	–	–	10	10	10	10	9	3	3	8	3	8	2
CC1(C)CC(S(=O)(=O)C(F)(Cl)c2cccnc2Cl)=NO1 (stereo not drawn) [8.03]	–	–	–	–	8	10	10	8	6	4	0	7	6	4	0

From patent US8680290B2, “Isoxazoline derivatives and their use as herbicides” (Syngenta Limited, priority 2004, dated 2014)
